Patent US20210284621A1 (priority 2018, published 2021)
“Also recorded” adds a separate entry of the source.

Columns and labels:
[1] = Pharmacokinetics after PO dose in mice; assay type: in vivo, Male C57BL/6 mice; conditions: 10 mg/kg PO; for AUC(0-inf) / Cmax / MRT inf / Tmax / half-life / AUC(0-t): male, C57BL/6, mouse, in vivo; for AUC(0-t): read-out: AUC0-24 hr
LPS-induced PBMCs = experiment: Inflammatory cytokine release from LPS-induced PBMCs (Luminex); assay type: cell-based, human; conditions: fold change from LPS-treated PBMCs, compounds 10 μM (DEX 1 μg/ml) 2 h, then LPS 0.1 μg/ml 24 h, negative = reduced
How it was run: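 Human PBMCs from healthy donors pretreated 2 hours with compound at 10 μM (triplicate), then stimulated with 0.1 μg/ml LPS for 24 hours. Supernatant cytokines measured by magnetic Luminex; values given as fold change versus LPS-treated PBMCs, negative meaning reduction; cytotoxicity also assessed.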

[2] = Brain concentration and brain/plasma ratio after PO dose in mice; assay type: in vivo; conditions: mouse, 10 mg/kg PO, male C57BL/6 mice; for Kp at 4 h / Kp at 10 h: brain/plasma; for concentration at 4 h / concentration at 10 h / concentration at 24 h: brain
Procedure: Male C57BL/6 mice were administered an oral (P0) dose of 10 mg/kg of the indicated compound. The brain/plasma ratios of the indicated compounds were determined by standard methods, the results of which are provided in Table 11.

[3] = test system: 12 systems of human primary cells; experiment: BioMAP Diversity PLUS phenotypic screen; assay type: cell-based; conditions: 3.3 μM; for Anti-proliferation: cell type in which anti-proliferative effect was seen; for Immune modulation, cell surface and tissue remodeling biomarkers: changes at least 1.5-fold from vehicle control
Procedure: Compounds of the invention were assayed for their effects on 148 biomarkers of inflammation, immune modulation and tissue remodeling in the BioMAP® Diversity PLUS® (DiscoverX) platform designed to model aspects of human diseases in vitro (Kunkel 2004, Berg 2006, Melton 2013).
The example compounds (3.3 μM) in Table 8 induced increases or decreases in the levels of the indicated 20 biomarkers, which are at least 1.5-fold change from vehicle control and are outside the significance prediction envelop. All compounds presented in Table 8 were not cytotoxic at the concentration tested.

[4] = OOR = out of standard curve range

CCCCCCC(C)(C)c1cc(O)c2c(c1)OC(C)(C)[C@@H]1CC=C(C(=O)O)C[C@@H]21 [AJA, (6aR,10aR)-1-hydroxy-6,6-dimethyl-3-(2-methyl-2-octanyl)-6a,7,10,10a-tetrahydro-6H-benzo[c]chromene-9-carboxylic acid, reference compound]
F [1]: 70.79%
Tlag [1]: 0 h
AUC(0-inf) [1]: 17800 ng·h/mL
Cmax [1]: 3860 ng/mL
MRT inf [1]: 3.42 h
Tmax [1]: 1 h
half-life [1]: 2.19 h
AUC(0-t) [1]: 17800 ng·h/mL

CCCCCCC(C)(C)c1cc(O)c2c(c1)OC(C)(C)[C@@H]1CC=C(C(=O)NC(C)(C)CCO)C[C@@H]21 [Compound 15, (6aR,10aR)-1-Hydroxy-N-(4-hydroxy-2-methylbutan-2-yl)-6,6-dimethyl-3-(2-methyloctan-2-yl)-6a,7,10,10a-tetrahydro-6H-benzo[c]chromene-9-carboxamide]
IL17A (LPS-induced PBMCs): −3.1 fold change
IL-1β (LPS-induced PBMCs): −5.9 fold change
IL-4 (LPS-induced PBMCs): −2.7 fold change
IL-6 (LPS-induced PBMCs): −107.7 fold change
IL-8 (LPS-induced PBMCs): −2.4 fold change
IL-10 (LPS-induced PBMCs): −299.9 fold change
MCP-1 (LPS-induced PBMCs): −213.2 fold change
TNFα (LPS-induced PBMCs): −75.9 fold change
IL-12 (p70) (LPS-induced PBMCs; [4]): OOR
L-31 (LPS-induced PBMCs; [4]): OOR
F [1]: 37.4%
Tlag [1]: 0.00 h
AUC(0-inf) [1]: 5890 ng·h/mL
Cmax [1]: 779 ng/mL
MRT inf [1]: 5.07 h
Tmax [1]: 4 h
half-life [1]: 2.65 h
AUC(0-t) [1]: 5870 ng·h/mL
Kp at 4 h [2]: 0.139
Kp at 10 h [2]: 0.331
concentration at 4 h [2]: 107 ng/g
concentration at 10 h [2]: 50.4 ng/g
concentration at 24 h [2]: 0 ng/g

CCCCCCC(C)(C)c1cc(O)c2c(c1)OC(C)(C)[C@@H]1CC=C(C(=O)NC(CO)CO)C[C@@H]21 [Compound 25, (6aR,10aR)-N-(1,3-Dihydroxypropan-2-yl)-1-hydroxy-6,6-dimethyl-3-(2-methyloctan-2-yl)-6a,7,10,10a-tetrahydro-6H-benzo[c]chromene-9-carboxamide]
Anti-proliferation [3]: Dermal fibroblasts
Immune modulation, cell surface and tissue remodeling biomarkers [3]: Reduced VCAM-1, PAI-I, IL-10, and M-CSF; increased MMP-1

CCCCCCC(C)(C)c1cc(O)c2c(c1)OC(C)(C)[C@@H]1CC=C(C(=O)OC(C)C)C[C@@H]21 [Compound 29, Isopropyl (6aR,10aR)-1-hydroxy-6,6-dimethyl-3-(2-methyloctan-2-yl)-6a,7,10,10a-tetrahydro-6H-benzo[c]chromene-9-carboxylate]
Anti-proliferation [3]: Dermal fibroblasts
Immune modulation, cell surface and tissue remodeling biomarkers [3]: Reduced Eotaxin-3, IL-8, E-selectin, P-selectin, VCAM, EGFR,; also recorded: IL-1α, IP-10, and PAI-I
F [1]: 3.98%
Tlag [1]: 0.00 h
AUC(0-inf) [1]: 1420 ng·h/mL
Cmax [1]: 203 ng/mL
MRT inf [1]: 6.2 h
Tmax [1]: 6 h
half-life [1]: 4.21 h
AUC(0-t) [1]: 1400 ng·h/mL
Kp at 4 h [2]: 0.00637
Kp at 10 h [2]: 0.106
concentration at 4 h [2]: 1.72 ng/g
concentration at 10 h [2]: 7.93 ng/g
concentration at 24 h [2]: 0 ng/g

CCCCCCC(C)(C)c1cc(O)c2c(c1)OC(C)(C)[C@@H]1CC=C(C(=O)NC[C@@H](O)CO)C[C@@H]21 [Compound 55, (6aR,10aR)-N—((R)-2,3-Dihydroxypropyl)-1-hydroxy-6,6-dimethyl-3-(2-methyloctan-2-yl)-6a,7,10,10a-tetrahydro-6H-benzo[c]chromene-9-carboxamide]
Anti-proliferation [3]: Dermal fibroblasts
F [1]: 30.33%
Tlag [1]: 0 h
AUC(0-inf) [1]: 7200 ng·h/mL
Cmax [1]: 882 ng/mL
MRT inf [1]: 6.4 h
Tmax [1]: 1 h
half-life [1]: 2.72 h
AUC(0-t) [1]: 7170 ng·h/mL

CCCCCCC(C)(C)c1cc(O)c2c(c1)OC(C)(C)[C@@H]1CC=C(C(=O)NC[C@H](O)CO)C[C@@H]21 [Compound 56, (6aR,10aR)-N—((S)-2,3-Dihydroxypropyl)-1-hydroxy-6,6-dimethyl-3-(2-methyloctan-2-yl)-6a,7,10,10a-tetrahydro-6H-benzo[c]chromene-9-carboxamide]
F [1]: 23.11%
Tlag [1]: 0 h
AUC(0-inf) [1]: 4430 ng·h/mL
Cmax [1]: 902 ng/mL
MRT inf [1]: 4.89 h
Tmax [1]: 1 h
half-life [1]: 2.63 h
AUC(0-t) [1]: 4420 ng·h/mL
